Literature values in patent publication US5916587A, “Transdermal delivery matrix for piroxicam” (Sunkyong Industries Co., Ltd., priority 1992, dated 1999).

Legend:
[1] = orally administered
[2] = tested on: prostaglandin biosynthesis
[3] = oral use

## CN1C(C(=O)Nc2ccccn2)=C(O)c2ccccc2S1(=O)=O [Piroxicam, piroxicam]
[1]
  drug excreted in the urine unchanged: Less than 5%
  metabolism: metabolized at the first pass route
[2]; compared with indomethacin
  potency as an inhibitor of prostaglandin biosynthesis in vitro: about equal in potency to indomethacin
[3]
  side effects: gastro-intestinal trouble, peptic ulcer

## Nc1nc2cccc(-c3ccc(CN4CCS(=O)(=O)CC4)cc3)n2n1 [metabolite]
[2]; metabolite vs piroxicam
  fold less active than piroxicam inhibiting prostaglandin synthesis: at least 1000 times
